Source: US8741906B2 (priority 2011, dated 2014)
Like-named read-outs stand apart in the source and are kept apart here.

Legend:
[1] = biological target: T1, human CB2 receptors (Homo sapiens, UniProt P34972); assay: functional cAMP assay, human CB2; type: cell-based; conditions: CHO cells expressing human CB2, cAMP; read-out: human CB2 EC50
T1 construct: expressed in transfected cells; host or cells: CHO cells
In short: (§1)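 CHO cells expressing human CB1 or CB2 were preincubated 30 min at 30 °C in Krebs Ringer bicarbonate with 1 mM IBMX, then exposed to compound 30 min at 30 °C. cAMP quantified by TR-FRET competition (Alexa700 antibody/ruthenium-cAMP) against a 10 μM–0.13 nM standard curve; EC50 derived.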

[2] = biological target: T2, human CB1 receptors (Homo sapiens, UniProt P21554); assay: functional cAMP assay, human CB1; type: cell-based
T2 construct: expressed in transfected cells; host or cells: CHO cells
In short: as §1

[3] = CHO cells expressing human CB1, cAMP, read-out: human CB1 EC50

T2 sequence (P21554 whole entry): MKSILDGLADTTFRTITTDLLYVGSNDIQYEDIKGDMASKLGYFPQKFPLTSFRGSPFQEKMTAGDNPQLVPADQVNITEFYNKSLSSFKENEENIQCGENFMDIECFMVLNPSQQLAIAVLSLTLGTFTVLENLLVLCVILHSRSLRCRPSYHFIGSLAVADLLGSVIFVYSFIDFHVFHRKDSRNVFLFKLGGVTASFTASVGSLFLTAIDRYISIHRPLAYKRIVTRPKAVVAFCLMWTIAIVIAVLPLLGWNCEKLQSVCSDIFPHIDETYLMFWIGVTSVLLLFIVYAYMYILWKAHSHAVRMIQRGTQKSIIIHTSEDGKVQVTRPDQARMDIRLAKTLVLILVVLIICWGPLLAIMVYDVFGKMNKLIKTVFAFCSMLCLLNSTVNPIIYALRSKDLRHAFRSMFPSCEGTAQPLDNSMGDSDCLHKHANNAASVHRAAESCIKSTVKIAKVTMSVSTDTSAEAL
T1 sequence (P34972 whole entry): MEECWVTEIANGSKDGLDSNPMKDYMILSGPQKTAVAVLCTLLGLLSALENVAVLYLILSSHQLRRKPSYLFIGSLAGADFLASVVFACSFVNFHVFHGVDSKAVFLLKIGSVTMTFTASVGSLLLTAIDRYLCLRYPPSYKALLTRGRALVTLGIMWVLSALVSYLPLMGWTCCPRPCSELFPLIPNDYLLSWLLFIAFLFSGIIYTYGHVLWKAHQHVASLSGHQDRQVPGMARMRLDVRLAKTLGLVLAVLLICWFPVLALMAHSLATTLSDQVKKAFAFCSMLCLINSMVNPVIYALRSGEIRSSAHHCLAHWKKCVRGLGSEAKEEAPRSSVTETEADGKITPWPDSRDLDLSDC

| Compound | EC50 [1] | EC50 [2, 3] | EC50 [2] |
| --- | --- | --- | --- |
| Cn1ncnc1Cn1nnc2c(N3CC[C@H](O)C3)nc(C(C)(C)C)nc21 [Example 152, (S)-1-[5-tert-Butyl-3-(2-methyl-2H-[1,2,4]triazol-3-ylmethyl)-3H-[1,2,3]triazolo[4,5-d]pyrimidin-7-yl]-pyrrolidin-3-ol] | 10.5 nM | > 10 µM | – |
| Cc1nnc(Cn2nnc3c(N4CC[C@H](O)C4)nc(C(C)(C)C)nc32)n1C [Example 153, (S)-1-[5-tert-Butyl-3-(4,5-dimethyl-4H-[1,2,4]triazol-3-ylmethyl)-3H-[1,2,3]triazolo[4,5-d]pyrimidin-7-yl]-pyrrolidin-3-ol] | 11.9 nM | > 10 µM | – |
| Cn1nncc1Cn1nnc2c(N3CC[C@H](O)C3)nc(C(C)(C)C)nc21 [Example 154, (S)-1-[5-tert-Butyl-3-(3-methyl-3H-[1,2,3]triazol-4-ylmethyl)-3H-[1,2,3]triazolo[4,5-d]pyrimidin-7-yl]-pyrrolidin-3-ol] | 2.5 nM | > 10 µM | – |
| Cc1cc(Cn2nnc3c(N4CC[C@H](O)C4)nc(C(C)(C)C)nc32)n(C)n1 [Example 155, (S)-1-[5-tert-Butyl-3-(2,5-dimethyl-2H-pyrazol-3-ylmethyl)-3H-[1,2,3]triazolo[4,5-d]pyrimidin-7-yl]-pyrrolidin-3-ol] | 3 nM | > 10 µM | – |
| CC(C)(C)c1nc(N2CCC(F)(F)C2)c2nnn(Cc3nc(C(F)(F)F)no3)c2n1 [Example 156, 5-tert-Butyl-7-(3,3-difluoro-pyrrolidin-1-yl)-3-(3-trifluoromethyl-[1,2,4]oxadiazol-5-ylmethyl)-3H-[1,2,3]triazolo[4,5-d]pyrimidine] | 5.6 nM | > 10 µM | – |
| CC(C)(C)c1nc(N2CCC(F)(F)C2)c2nnn(Cc3nnnn3C3CC3)c2n1 [Example 157, 5-tert-Butyl-3-(1-cyclopropyl-1H-tetrazol-5-ylmethyl)-7-(3,3-difluoro-pyrrolidin-1-yl)-3H-[1,2,3]triazolo[4,5-d]pyrimidine] | 0.1 nM | > 10 µM | – |
| CC(C)(C)c1nc(N2CC[C@H](O)C2)c2nnn(Cc3cccnc3Nc3ccc([N+](=O)[O-])c4nonc34)c2n1 [Example 158, (S)-1-{5-tert-Butyl-3-[2-(7-nitro-benzo[1,2,5]oxadiazol-4-ylamino)-pyridin-3-ylmethyl]-3H-[1,2,3]triazolo[4,5-d]pyrimidin-7-yl}-pyrrolidin-3-ol] | 254 nM | – | > 10 µM |
| COc1ccc(Cn2nnc3c(N4CC[C@H](O)[C@@H]4CO)nc(C(C)(C)C)nc32)cc1 [Example 159, (2S,3S)-1-[5-tert-Butyl-3-(4-methoxy-benzyl)-3H-[1,2,3]triazolo[4,5-d]pyrimidin-7-yl]-2-hydroxymethyl-pyrrolidin-3-ol] | 35.8 nM | > 10 µM | – |
| CC(C)(C)c1nc(N2CC[C@H](O)C2)c2nnn(Cc3nnnn3C3CC3)c2n1 [Example 160, (S)-1-[5-tert-Butyl-3-(1-cyclopropyl-1H-tetrazol-5-ylmethyl)-3H-[1,2,3]triazolo[4,5-d]pyrimidin-7-yl]-pyrrolidin-3-ol] | 0.7 nM | > 10 µM | – |
| Cc1nc(Cn2nnc3c(N4CC[C@H](O)C4)nc(C(C)(C)C)nc32)n(C)n1 [Example 161, (S)-1-[5-tert-Butyl-3-(2,5-dimethyl-2H-[1,2,4]triazol-3-ylmethyl)-3H-[1,2,3]triazolo[4,5-d]pyrimidin-7-yl]-pyrrolidin-3-ol] | 82.5 nM | > 10 µM | – |
| Cc1c(Cn2nnc3c(N4CC[C@H](O)C4)nc(C(C)(C)C)nc32)ccc[n+]1[O-] [Example 162, (S)-1-[5-tert-Butyl-3-(2-methyl-1-oxy-pyridin-3-ylmethyl)-3H-[1,2,3]triazolo[4,5-d]pyrimidin-7-yl]-pyrrolidin-3-ol] | 27.7 nM | > 10 µM | – |
| Cc1nc(Cn2nnc3c(N4CCC(F)(F)C4)nc(C(C)(C)C)nc32)n(C)n1 [Example 163, 5-tert-Butyl-7-(3,3-difluoro-pyrrolidin-1-yl)-3-(2,5-dimethyl-2H-[1,2,4]triazol-3-ylmethyl)-3H-[1,2,3]triazolo[4,5-d]pyrimidine] | 5.5 nM | > 10 µM | – |
| Cc1nonc1Cn1nnc2c(N3CC[C@H](O)[C@@H]3CO)nc(C(C)(C)C)nc21 [Example 164, (2S,3S)-1-[5-tert-Butyl-3-(4-methyl-furazan-3-ylmethyl)-3H-[1,2,3]triazolo[4,5-d]pyrimidin-7-yl]-2-hydroxymethyl-pyrrolidin-3-ol] | 0.8 nM | > 10 µM | – |
| Cn1nnnc1Cn1nnc2c(N3CC[C@H](O)[C@@H]3CO)nc(C(C)(C)C)nc21 [Example 165, (2S,3S)-1-[5-tert-Butyl-3-(1-methyl-1H-tetrazol-5-ylmethyl)-3H-[1,2,3]triazolo[4,5-d]pyrimidin-7-yl]-2-hydroxymethyl-pyrrolidin-3-ol] | 53.5 nM | > 10 µM | – |
| CC(C)(C)c1nc(N2CC[C@H](O)[C@@H]2CO)c2nnn(Cc3nnnn3C3CC3)c2n1 [Example 166, (2S,3S)-1-[5-tert-Butyl-3-(1-cyclopropyl-1H-tetrazol-5-ylmethyl)-3H-[1,2,3]triazolo[4,5-d]pyrimidin-7-yl]-2-hydroxymethyl-pyrrolidin-3-ol] | 18 nM | > 10 µM | – |
| CC(C)(C)c1nc(N2CC[C@H](O)[C@@H]2CO)c2nnn(Cc3ncccc3Cl)c2n1 [Example 167, (2S,3S)-1-[5-tert-Butyl-3-(3-chloro-pyridin-2-ylmethyl)-3H-[1,2,3]triazolo[4,5-d]pyrimidin-7-yl]-2-hydroxymethyl-pyrrolidin-3-ol] | 3.8 nM | > 10 µM | – |
| CC(C)(C)c1nc(N2CC[C@H](O)[C@@H]2CO)c2nnn(Cc3ccccc3S(C)(=O)=O)c2n1 [Example 168, (2S,3S)-1-[5-tert-Butyl-3-(2-methanesulfonyl-benzyl)-3H-[1,2,3]triazolo[4,5-d]pyrimidin-7-yl]-2-hydroxymethyl-pyrrolidin-3-ol] | 9.4 nM | > 10 µM | – |
| Cn1ncnc1Cn1nnc2c(N3CC[C@H](O)[C@@H]3CO)nc(C(C)(C)C)nc21 [Example 169, (2S,3S)-1-[5-tert-Butyl-3-(2-methyl-2H-[1,2,4]triazol-3-ylmethyl)-3H-[1,2,3]triazolo[4,5-d]pyrimidin-7-yl]-2-hydroxymethyl-pyrrolidin-3-ol] | 199 nM | – | > 10 µM |
| Cc1nnc(Cn2nnc3c(N4CC[C@H](O)[C@@H]4CO)nc(C(C)(C)C)nc32)n1C [Example 170, (2S,3S)-1-[5-tert-Butyl-3-(4,5-dimethyl-4H-[1,2,4]triazol-3-ylmethyl)-3H-[1,2,3]triazolo[4,5-d]pyrimidin-7-yl]-2-hydroxymethyl-pyrrolidin-3-ol] | 194 nM | – | > 10 µM |
| Cn1nncc1Cn1nnc2c(N3CC[C@H](O)[C@@H]3CO)nc(C(C)(C)C)nc21 [Example 171, (2S,3S)-1-[5-tert-Butyl-3-(3-methyl-3H-[1,2,3]triazol-4-ylmethyl)-3H-[1,2,3]triazolo[4,5-d]pyrimidin-7-yl]-2-hydroxymethyl-pyrrolidin-3-ol] | 54.2 nM | > 10 µM | – |
| CC(C)(C)c1nc(N2CC[C@H](O)[C@@H]2CO)c2nnn(Cc3cccnc3Cl)c2n1 [Example 172, (2S,3S)-1-[5-tert-Butyl-3-(2-chloro-pyridin-3-ylmethyl)-3H-[1,2,3]triazolo[4,5-d]pyrimidin-7-yl]-2-hydroxymethyl-pyrrolidin-3-ol] | 4.1 nM | > 10 µM | – |
